Experimental findings from patent US9242943B2, “1,4 oxazines as BACE1 and/or BACE2 inhibitors” (SIENA BIOTECH S.P.A., priority 2011, dated 2016) are described below.

One assay deals with BACE1 (Homo sapiens (Human), UniProt P56817). Put plainly: Cellular Aβ-lowering assay (Aβ40 ELISA, HEK293 cells expressing human APP695). In kind it is cell-based. The following applies: HEK293 cells stably transfected with human APP695; 18-20 hrs incubation; Aβ40 in supernatant; read-out: BACE1 cell act. Aβ40 IC50. How it is done:
Cellular Aβ-Lowering Assay:
Human HEK293 cells which are stably transfected with a vector expressing a cDNA of the human APP wt gene (APP695) were used to assess the potency of the compounds in a cellular assay. The cells were seeded in 96-well microtiter plates in cell culture medium (Iscove, plus 10% (v/v) fetal bovine serum, glutamine, penicillin/streptomycin) to about 80% confluence and the compounds were added at a 10× concentration in 1/10 volume of medium without FCS containing 8% DMSO (final concentration of DMSO was kept at 0.8% v/v). After 18-20 hrs incubation at 37° C. and 5% CO2 in a humidified incubator the culture supernatant was harvested for the determination of […] concentrations. 96well ELISA plates (e.g., Nunc MaxiSorb) were coated with monoclonal antibody which specifically recognize the C-terminal end of […] (Brockhaus et al., NeuroReport 9, 1481-1486; 1998). After blocking of non-specific binding sites with e.g. 1% BSA and washing, the culture supernatants were added in suitable dilutions together with a horseradish peroxidase-coupled Aβ detection antibody (e.g., antibody 4G8, Senetek, Maryland Heights, Mo.) and incubated for 5 to 7 hrs. Subsequently the wells of the microtiter plate were washed extensively with Tris-buffered saline containing 0.05% Tween 20 and the assay was developed with tetramethylbenzidine/H2O2 in citric acid buffer. After stopping the reaction with one volume 1 N H2SO4 the reaction was measured in an ELISA reader at 450 nm wavelength. The concentrations of Aβ in the culture supernatants were calculated from a standard curve obtained with known amounts of pure Aβ peptide.
A general note: In an ELISA, binding on a coated surface is turned into a signal by an enzyme label.

The next assay has as its target BACE2 (Rattus norvegicus (Rat), UniProt Q6IE75). The experiment in a line: Assay for BACE inhibition by measuring cellular TMEM27 cleavage (INS-TMEM27 cells, ELISA). In kind it is cell-based. The conditions noted are these: INS-TMEM27 (INS1e-derived) cells; shed TMEM27 in supernatant; read-out: BACE2 cell act. IC50. The text has this: Assay for BACE Inhibition by Measuring Cellular TMEM27 Cleavage:
The assay uses the principle of inhibition of human TMEM27 cleavage by endogenous cellular BACE2 in the Ins1e rat cell line and shedding from the cell surface into the culture medium, followed by detection in an ELISA assay. Inhibition of BACE2 prevents the cleavage and shedding in a dose-dependent manner
The stable cell line “INS-TMEM27” represents an INS1e-derived cell line with inducible expression (using the TetOn system) of full-length hTMEM27 in a doxycycline-dependent manner. The cells are cultured throughout the experiment in RPMI1640 +Glutamax (Invitrogen) Penicillin/Streptomycin, 10% Fetal bovine serum, […], […], 100 micrograms/ml G418 and 100 microgram/ml hygromycin and are grown inadherent culture at 37° C. in a standard CO2 cell culture incubator.
INS-TMEM27 cells are seeded in 96-well plates. After 2 days in culture, BACE2 inhibitor is added in a range of concentrations as required by the assay and after a further two hours, doxycycline is added to a final concentration of 500 ng/ml. The cells are incubated for a further 46 hours and the supernatant harvested for detection of shed TMEM27.
An ELISA assay (using a pair of mouse anti-human-TMEM27 antibodies, raised against the extracellular domain of TMEM27) is used for detection of TMEM27 in the culture medium. An EC50 for BACE2 inhibition is calculated using the ELISA readout for each inhibitor concentration with standard curve-fitting software such as XLFit for the Excel spreadsheet program.

BACE1, sequence (P56817 46-501): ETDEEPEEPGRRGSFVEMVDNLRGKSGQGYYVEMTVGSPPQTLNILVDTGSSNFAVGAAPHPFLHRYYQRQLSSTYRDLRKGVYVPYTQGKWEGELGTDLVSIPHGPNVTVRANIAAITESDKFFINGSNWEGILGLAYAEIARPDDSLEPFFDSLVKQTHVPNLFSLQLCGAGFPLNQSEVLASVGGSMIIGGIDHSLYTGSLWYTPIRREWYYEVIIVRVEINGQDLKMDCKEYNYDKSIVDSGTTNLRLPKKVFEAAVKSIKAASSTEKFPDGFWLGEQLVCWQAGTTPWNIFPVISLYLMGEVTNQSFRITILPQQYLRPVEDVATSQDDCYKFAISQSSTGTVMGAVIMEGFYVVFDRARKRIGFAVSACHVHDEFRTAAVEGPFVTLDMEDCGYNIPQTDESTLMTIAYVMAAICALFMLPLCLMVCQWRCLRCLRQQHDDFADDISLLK
BACE2, sequence (Q6IE75 63-514): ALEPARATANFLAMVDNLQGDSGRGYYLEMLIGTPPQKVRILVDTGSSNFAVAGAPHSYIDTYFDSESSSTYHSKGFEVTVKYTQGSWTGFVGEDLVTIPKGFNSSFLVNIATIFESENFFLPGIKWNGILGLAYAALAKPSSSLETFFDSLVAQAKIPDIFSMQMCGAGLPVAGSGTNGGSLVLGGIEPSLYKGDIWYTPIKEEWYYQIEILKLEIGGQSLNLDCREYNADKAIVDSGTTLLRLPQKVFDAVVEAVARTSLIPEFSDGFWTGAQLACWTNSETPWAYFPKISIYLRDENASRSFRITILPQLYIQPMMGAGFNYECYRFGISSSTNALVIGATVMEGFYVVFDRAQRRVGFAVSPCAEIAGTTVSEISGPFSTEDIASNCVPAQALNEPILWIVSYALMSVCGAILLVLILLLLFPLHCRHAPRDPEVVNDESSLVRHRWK

Usually IC50 stands for the concentration that inhibits the measured activity by half. Turning to `C[C@@]1(c2cc(NC3CCOC3)ccc2F)COCC(N)=N1` (stereo partly drawn) [Example 18, (R)-5-[2-Fluoro-5-(tetrahydro-furan-3-ylamino)-phenyl]-5-methyl-5,6-dihydro-2H-[1,4]oxazin-3-ylamine], the figures for the IC50 at BACE1 and on BACE2 were 320 nM and 3390 nM, respectively.
`CC1(c2cccc(Nc3cccc4cc(Cl)cnc34)c2)COCC(N)=N1` (stereo not shown) [Example 24, [3-(5-Amino-3-methyl-3,6-dihydro-2H-[1,4]oxazin-3-yl)-phenyl]-(3-chloro-quinolin-8-yl)-amine]: the values for the IC50 at BACE1 and at BACE2 were 250 nM and 18 nM, respectively.
For `C[C@@]1(c2cc(Nc3cccc4cc(OCC(F)(F)F)cnc34)ccc2F)COCC(N)=N1` [Example 32, [3-((R)-5-Amino-3-methyl-3,6-dihydro-2H-[1,4]oxazin-3-yl)-4-fluoro-phenyl]-[3-(2,2,2-trifluoro-ethoxy)-quinolin-8-yl]-amine], the IC50 at BACE1 came to 2360 nM.
With `C[C@@]1(c2cc(NC3CCC3)ccc2F)COCC(N)=N1` [Example 14, (R)-5-(5-Cyclobutylamino-2-fluoro-phenyl)-5-methyl-5,6-dihydro-2H-[1,4]oxazin-3-ylamine], the IC50 at BACE1 is 260 nM; at BACE2, 1170 nM.
For `CC(C)CCNc1ccc(F)c([C@]2(C)COCC(N)=N2)c1` [Example 6, (R)-5-(2-fluoro-5-(isopentylamino)phenyl)-5-methyl-5,6-dihydro-2H-1,4-oxazin-3-amine], in that order: 1360 nM and 605 nM.
On to `C[C@@]1(c2cc(Nc3cc(F)cc4cc(OCC5CC5)cnc34)ccc2F)COCC(N)=N1` [Example 31, [3-((R)-5-Amino-3-methyl-3,6-dihydro-2H-[1,4]oxazin-3-yl)-4-fluoro-phenyl]-(3-cyclopropylmethoxy-6-fluoro-quinolin-8-yl)-amine], for which the IC50 at BACE1 was 6900 nM.
With `C[C@@]1(c2cc(NCc3nn(C(F)F)cc3Cl)ccc2F)COCC(N)=N1` [Example 45, (R)-5-{5-[(4-Chloro-1-difluoromethyl-1H-pyrazol-3-ylmethyl)-amino]-2-fluoro-phenyl}-5-methyl-5,6-dihydro-2H-[1,4]oxazin-3-ylamine], the IC50 on BACE1 came out at 17 nM.
In the case of `CC1(c2cccc(NCc3ccc(Cl)cc3)c2)COCC(N)=N1` (stereo not shown) [Example 2, 5-[3-(4-Chloro-benzylamino)-phenyl]-5-methyl-5,6-dihydro-2H-[1,4]oxazin-3-ylamine], on BACE1, the IC50 stood at 450 nM.
The same measure, in the same setting: to `CC(C)C(C)Nc1ccc(F)c([C@]2(C)COCC(N)=N2)c1` (stereo partly drawn) [Example 8, (5R)-5-(2-fluoro-5-(3-methylbutan-2-ylamino)phenyl)-5-methyl-5,6-dihydro-2H-1,4-oxazin-3-amine] belongs 2190 nM.
Still for that read-out and setting: to `C[C@@]1(c2cc(Nc3ccccc3OCC(F)(F)F)ccc2F)COCC(N)=N1` [Example 42, (R)-5-{2-Fluoro-5-[2-(2,2,2-trifluoro-ethoxy)-phenylamino]-phenyl}-5-methyl-5,6-dihydro-2H-[1,4]oxazin-3-ylamine] belongs 5200 nM.
Consider `C[C@@]1(c2cc(NCC3CC3)ccc2F)COCC(N)=N1` [Example 21, (R)-5-(5-(cyclopropylmethylamino)-2-fluorophenyl)-5-methyl-5,6-dihydro-2H-1,4-oxazin-3-amine], for which the values for the IC50 at BACE1 and on BACE2 were 130 nM and 279 nM, respectively.
Take `C[C@@]1(c2cc(NCC(F)(F)F)ccc2F)COCC(N)=N1` [Example 9, (R)-5-(2-fluoro-5-(2,2,2-trifluoroethylamino)phenyl)-5-methyl-5,6-dihydro-2H-1,4-oxazin-3-amine]: the IC50 on BACE1 was found to be 350 nM.
The same measure, in the same setting: to “(R)-5-{2-Fluoro-5-[2-(2-fluoro-ethoxy)-phenylamino]-phenyl}-5-methyl-5,6-dihydro-2H-[1,4]oxazin-3-ylamine [Example 43]” belongs 3200 nM.
On to `CC(C)C(Nc1ccc(F)c([C@]2(C)COCC(N)=N2)c1)c1ccc(Cl)cn1` (stereo partly drawn) [Example 23, (R)-5-{5-[1-(5-Chloro-pyridin-2-yl)-2-methyl-propylamino]-2-fluoro-phenyl}-5-methyl-5,6-dihydro-2H-[1,4]oxazin-3-ylamine], for which the values for the IC50 on BACE1 and on BACE2 were 3710 nM and 1660 nM, respectively.
Turning to `C[C@@]1(c2cc(Nc3cccc4cc(Cl)cnc34)ccc2F)COCC(N)=N1` [Example 26, [3-((R)-5-Amino-3-methyl-3,6-dihydro-2H-[1,4]oxazin-3-yl)-4-fluoro-phenyl]-(3-chloro-quinolin-8-yl)-amine], the IC50 on BACE1 was 160 nM; on BACE2, 77 nM.
As to `CC1(c2cccc(Nc3cccc4oc(C5CC5)nc34)c2)COCC(N)=N1` (stereo not shown) [Example 46, [3-(5-Amino-3-methyl-3,6-dihydro-2H-[1,4]oxazin-3-yl)-phenyl]-(2-cyclopropyl-benzooxazol-4-yl)-amine], the IC50 at BACE2 worked out at 300 nM.
With `C[C@@]1(c2cc(Nc3cc(F)cc4cc(Cl)cnc34)ccc2F)COCC(N)=N1` [Example 28, [3-((R)-5-Amino-3-methyl-3,6-dihydro-2H-[1,4]oxazin-3-yl)-4-fluoro-phenyl]-(3-chloro-6-fluoro-quinolin-8-yl)-amine], at BACE1, the IC50 came to 44 nM.
With `C[C@@]1(c2cc(NC3CCc4cc(Cl)cnc43)ccc2F)COCC(N)=N1` (stereo partly drawn) [Example 40, [3-((R)-5-Amino-3-methyl-3,6-dihydro-2H-[1,4]oxazin-3-yl)-4-fluoro-phenyl]-(3-chloro-6,7-dihydro-5H-[1]pyrindin-7-yl)-amine], the figures for the IC50 at BACE1 and at BACE2 were 320 nM and 1100 nM, respectively.
For the compound `CSCCCNc1ccc(F)c([C@]2(C)COCC(N)=N2)c1` [Example 13, (R)-5-(2-fluoro-5-(3-(methylthio)propylamino)phenyl)-5-methyl-5,6-dihydro-2H-1,4-oxazin-3-amine], at BACE1, the IC50 amounted to 310 nM.
Take `C[C@]1(c2cc(NC3CCc4cc(Cl)ccc43)ccc2F)COCC(N)=N1` (stereo partly drawn) [Example 35, (S)-5-[5-(5-Chloro-indan-1-ylamino)-2-fluoro-phenyl]-5-methyl-5,6-dihydro-2H-[1,4]oxazin-3-ylamine]: the values for the IC50 at BACE1 and at BACE2 were 100 nM and 732 nM, respectively.
With `C[C@@]1(c2cc(NC3CCCC3)ccc2F)COCC(N)=N1` [Example 15, (R)-5-(5-(cyclopentylamino)-2-fluorophenyl)-5-methyl-5,6-dihydro-2H-1,4-oxazin-3-amine], the results for the IC50 at BACE1 and at BACE2 were 120 nM and 170 nM, respectively.
Regarding `C[C@@]1(c2cc(NCC(F)F)ccc2F)COCC(N)=N1` [Example 10, (R)-5-[5-(2,2-Difluoro-ethylamino)-2-fluoro-phenyl]-5-methyl-5,6-dihydro-2H-[1,4]oxazin-3-ylamine], the IC50 on BACE1 came to 410 nM.
`COc1cnc2c(Nc3cccc(C4(C)COCC(N)=N4)c3)cccc2c1` (stereo not shown) [Example 37, [3-(5-Amino-3-methyl-3,6-dihydro-2H-[1,4]oxazin-3-yl)-phenyl]-(3-methoxy-quinolin-8-yl)-amine]: the IC50 on BACE2 amounted to 120 nM.
Regarding `CC1(c2cccc(NC3CCc4cc(Cl)ccc43)c2)COCC(N)=N1` (stereo not shown) [Example 39, 5-[3-(5-Chloro-indan-1-ylamino)-phenyl]-5-methyl-5,6-dihydro-2H-[1,4]oxazin-3-ylamine], the half-maximal inhibitory concentration (IC50) on BACE1 came to 180 nM.
Regarding `CC1(c2cccc(Nc3ccccc3OC(F)F)c2)COCC(N)=N1` (stereo not shown) [Example 44, 5-[3-(2-Difluoromethoxy-phenylamino)-phenyl]-5-methyl-5,6-dihydro-2H-[1,4]oxazin-3-ylamine], the IC50 on BACE1 came out at 890 nM.
Turning to `C[C@@]1(c2cc(Nc3cccc4cc(OCCF)cnc34)ccc2F)COCC(N)=N1` [Example 30, [3-((R)-5-Amino-3-methyl-3,6-dihydro-2H-[1,4]oxazin-3-yl)-4-fluoro-phenyl]-[3-(2-fluoro-ethoxy)-quinolin-8-yl]-amine], the IC50 at BACE1 amounted to 4770 nM.
As for `CCCCNc1ccc(F)c([C@]2(C)COCC(N)=N2)c1` [Example 5, (R)-5-(5-Butylamino-2-fluoro-phenyl)-5-methyl-5,6-dihydro-2H-[1,4]oxazin-3-ylamine], at BACE1, the IC50 came out at 340 nM.
